# From patent publication US12428408B2, “Fused heterocyclic mescaline derivatives” (Enveric Biosciences Canada Inc., priority 2022, dated 2025)
# Key:
# [1] = tested on: Human NT2/D1 precursor cells (NT2/D1); assay: Neuroplastogenicity assay using human model (NT2) neurons; type: cell-based; conditions: RA-treated NT2 cells, 1 μM, 48 hours, vs 0.1% DMSO
# Procedure: The compound with formula A(XXXII) was assayed for neuroplastogenic potential using the following procedure. Human NT2/D1 precursor cells (NT2/D1) were purchased from the American Type Culture Collection (ATCC, Manassas, VA, USA). The neuronal differentiation was carried out as previously described (Roloff et al., 2015, PLOS ONE e0118536:1-14; Roloff et al., 2013, BMC Neuroscience 14:141-155) with minor modifications. First, NT2/D1 cells were seeded in T-25 suspension culture flasks (REF #690190, Greiner bio-one, Germany). Each flask contained a minimum of 5×10^6 cells in 10 ml of DMEM/F12 supplemented with 10% fetal bovine serum (FBS), 1% penicillin and streptomycin and 10 μM retinoic acid (RA medium) to start neuronal differentiation. The cells were cultured for 3 days in free floating medium. At the end of the incubation, cells were trypsinized and collected by centrifugation, mechanically dispersed, and counted. Counted cells were seeded on Poly D-Lysine (PDL) coated cover slips (12 mm; diameter round, Fisher Scientific; GG-12-PDL) containing minimum of 0.1×10^5 cells in culture medium without RA. The next day, culture medium was replaced with RA medium containing 2% of FBS. These cells were cultured for 5 days, with a change of RA medium two days later. For the neuronal outgrowth assay, after cells had successfully attached and established under coverslips, the RA medium was replaced with one of the following: (1) test molecules at one of two different concentrations (10 μm or 1 μm); (2) positive control ROCK inhibitor Y-27632, (Dihydrochloride, Sigma-Aldrich); (2) positive control ibuprofen (14883-1G; Sigma-Aldrich), or (4) negative control culture medium containing 2% of FBS. Cells under these conditions were incubated for 48 hours under standard conditions (37° C., 5% CO2) in an incubator prior to the immunofluorescent assay.
# For the immunofluorescent assay, the treated cells housed under coverslips were collected after 48 hours of drug treatments. These coverslips washed with calcium chloride-free and magnesium chloride-free phosphate buffered saline (PBS) pH 7.4 (Gibco, #70011-044) and fixed using paraformaldehyde (PFA) 4% in PBS (#J61899, thermoscientific) for 15 min at room temperature (RT) and washed three times with 0.01% of Triton-X100 in PBS (PBST) to remove remaining PFA and to permeabilize the cells. Unspecific binding sites were blocked with 5% Bovine Serum Albumin (BSA) solution (#9048-46-8, Millipore) in PBST for 60 minutes at RT. Rabbit monoclonal antibody β-III-Tubulin (1:5,000, ab52623, Abcam) was applied overnight (O/N) at 4° C. […] Finally, the immunofluorescence images were detected by using Olympus VS110 slide scanner microscope. […]
# 5-HT2A receptor = 5-HT2A receptor (Homo sapiens, UniProt P28223); assay: 5-HT2A receptor radioligand competition assay (SPA)
# 5-HT1A receptor = biological target: T1, 5-HT1A receptor (Homo sapiens, UniProt P08908); assay: 5-HT1A receptor radioligand competition assay (SPA); type: binding
# T1 construct: purchased Perkin Elmer 6110501400UA
# T1 sequence (P08908 1-422): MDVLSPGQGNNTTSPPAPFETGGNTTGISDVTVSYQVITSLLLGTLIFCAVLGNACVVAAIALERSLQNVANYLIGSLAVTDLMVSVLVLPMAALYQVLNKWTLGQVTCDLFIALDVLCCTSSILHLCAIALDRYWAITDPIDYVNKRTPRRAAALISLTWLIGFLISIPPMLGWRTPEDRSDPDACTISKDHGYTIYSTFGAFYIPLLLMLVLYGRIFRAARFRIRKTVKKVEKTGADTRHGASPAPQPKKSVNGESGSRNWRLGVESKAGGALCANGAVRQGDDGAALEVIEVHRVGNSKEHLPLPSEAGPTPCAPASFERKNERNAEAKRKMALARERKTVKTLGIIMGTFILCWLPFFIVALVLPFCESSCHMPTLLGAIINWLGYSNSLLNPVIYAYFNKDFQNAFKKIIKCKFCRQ
# Chain of 5-HT2A receptor (P28223 whole entry): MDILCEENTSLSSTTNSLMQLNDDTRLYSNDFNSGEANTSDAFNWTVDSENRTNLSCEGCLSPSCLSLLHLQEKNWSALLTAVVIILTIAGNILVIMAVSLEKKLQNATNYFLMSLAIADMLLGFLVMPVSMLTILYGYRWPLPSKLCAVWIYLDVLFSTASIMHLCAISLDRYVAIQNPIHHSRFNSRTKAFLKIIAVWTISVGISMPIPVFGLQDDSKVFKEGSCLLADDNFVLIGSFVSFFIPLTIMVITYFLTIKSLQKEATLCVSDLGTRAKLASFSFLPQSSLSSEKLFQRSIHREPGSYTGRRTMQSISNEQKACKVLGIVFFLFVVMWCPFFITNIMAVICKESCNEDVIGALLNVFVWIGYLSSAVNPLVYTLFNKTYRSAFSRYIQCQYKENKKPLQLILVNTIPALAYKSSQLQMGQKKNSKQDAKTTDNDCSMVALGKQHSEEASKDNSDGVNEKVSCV
SMILES,neurite outgrowth (β-III-tubulin immunofluorescence) compared to negative control [1],Ki (5-HT2A receptor) [nM],Ki (5-HT1A receptor) [nM]
CC(Cc1ccc2c(c1)OCO2)N(C)CCc1c[nH]c2ccccc12 (stereo not shown) [A(XXXII)],strong signs of neurite outgrowth,465,465
"CC(C)Cc1ccc(C(C)C(=O)O)cc1 (stereo not shown) [ibuprofen, reference compound]",strong signs of neurite outgrowth,–,–
